Experimental findings from ChEMBL document CHEMBL3271966, “beta-Adrenergic blocking agents. 17. 1-Phenoxy-3-phenoxyalkylamino-2-propanols and 1-alkoxyalkylamino-3-phenoxy-2-propanols” (J Med Chem, 1977) are described below.

The source made the active and inactive calls. The calls are words filed in the database; no cut-off is given here.

The subject of series [1] is Felis catus. Description: Inhibition of isoproterenol-induced vasodepressor response in anesthetized cat compound administered as an infusion over a period of 30 mins. It is filed as organism-based. The conditions noted are these: in vivo, iv, 0.5 h.
The test system of series [2] is Felis catus. As to the kind of experiment: Inhibition of isoproterenol-induced tachycardia in anesthetized cat compound administered as an infusion over a period of 30 mins. It is filed as functional.

For orientation: ED50 means the dose that gives a 50% effect, or the effect in half of the subjects. In the case of `COCCNCC(O)COc1ccccc1[N+](=O)[O-]` (configuration not stated), the “inhibition (INH)” value in the series with Felis catus [1] turned out to be 29%. Also, the median effective dose (ED50) with Felis catus [2] (0.5 h) came to 0.293 mg/kg.

For `CC(C)OCCNCC(O)COc1ccccc1[N+](=O)[O-].O=C(O)C(=O)O` (configuration not stated), the “inhibition (INH)” value in the series with Felis catus [1] is recorded as 0%. Further, the 50% effect level in the series with Felis catus [2] (0.5 h) (ED50) was put at a dose of 0.195 mg/kg.

Regarding `Cc1cccc(OCC(O)CNCCOc2ccccc2)c1.Cl` (configuration not stated), the “inhibition (INH)” value with Felis catus [1] was found to be 33%. Further, the ED50 in the series with Felis catus [2] (0.5 h) was 1.76 mg/kg.

As for `Cl.OC(CNCCOc1cccc2ccccc12)COc1ccccc1` (configuration not stated), the “inhibition (INH)” value in the series on Felis catus [1] came out at 0%. Besides, the 50% effect level in the series on Felis catus [2] (0.5 h) (ED50) was put at a dose of 0.231 mg/kg.

`O=C(O)C(=O)O.OC(CNCCOc1c(Cl)cccc1Cl)COc1ccccc1` (configuration not stated): in the series on Felis catus [1], the “inhibition (INH)” value turned out to be 11%. In the series on Felis catus [2] (0.5 h), this compound came in with a median effective dose (ED50) of 0.402 mg/kg.

Take `Oc1ccc(OCC(O)CNCCOc2ccccc2)cc1` (configuration not stated): the “inhibition (INH)” value in the series on Felis catus [1] is 78%. The 50% effective dose (ED50) in the series on Felis catus [2] (0.5 h) came to 0.031 mg/kg.

Regarding `CC(CNCC(O)COc1ccccc1)Oc1ccccc1` (configuration not stated), in the series on Felis catus [1], the “inhibition (INH)” value is on record as 0%. The same compound displayed a 50% effective dose (ED50) with Felis catus [2] (0.5 h) of 0.051 mg/kg.

For `COCCNCC(O)COc1ccccc1C#N` (configuration not stated), in the series on Felis catus [1], the “inhibition (INH)” value turned out to be 0%. In addition, the 50% effect level in the series on Felis catus [2] (0.5 h) (ED50) was put at a dose of 0.198 mg/kg.

As to `COc1cccc(OC)c1OCCNCC(O)COc1ccccc1.O=C(O)C(=O)O` (configuration not stated), the “inhibition (INH)” value in the series with Felis catus [1] stood at 0%. The median effective dose (ED50) in the series on Felis catus [2] (0.5 h) is 2.26 mg/kg.

For the compound `OC(CNCCOc1ccccc1)COc1ccccc1Br` (configuration not stated), the “inhibition (INH)” value with Felis catus [1] came to 0%. In the series with Felis catus [2] (0.5 h), this compound showed an ED50 of 0.3 mg/kg.

With `Cc1cccc(OCCNCC(O)COc2ccccc2)c1.Cl` (configuration not stated), the “inhibition (INH)” value with Felis catus [1] was determined as 29%. This compound also gave an ED50 in the series on Felis catus [2] (0.5 h) of 0.116 mg/kg.

For the compound `Cc1ccccc1OCCNCC(O)COc1ccccc1` (configuration not stated), the “inhibition (INH)” value in the series with Felis catus [1] was 0%. The compound also displayed an ED50 in the series on Felis catus [2] (0.5 h) of 0.031 mg/kg.

As for `Cc1cccc(Cl)c1OCCNCC(O)COc1ccccc1.O=C(O)C(=O)O` (configuration not stated), the “inhibition (INH)” value in the series on Felis catus [1] was 79%. Moreover, the median effective dose (ED50) with Felis catus [2] (0.5 h) was found to be 0.09 mg/kg.

For `OC(CNCCOc1ccccc1F)COc1ccccc1` (configuration not stated), in the series on Felis catus [1], the “inhibition (INH)” value was 0%. The compound also showed a 50% effective dose (ED50) with Felis catus [2] (0.5 h) of 0.081 mg/kg.

On to `OC(CNCCOc1cccc(Cl)c1)COc1ccccc1` (configuration not stated), for which, in the series on Felis catus [1], the “inhibition (INH)” value was 36%. This compound showed a median effective dose (ED50) with Felis catus [2] (0.5 h) of 0.375 mg/kg.

Consider `COc1ccccc1OCC(O)CNCCOc1ccccc1.O=C(O)C(=O)O` (configuration not stated), for which the “inhibition (INH)” value in the series with Felis catus [1] turned out to be 0%. Further, in the series with Felis catus [2] (0.5 h), the 50% effective dose (ED50) amounted to 0.527 mg/kg.

Consider `OC(CNCCOc1ccc(OCc2ccccc2)cc1)COc1ccccc1` (configuration not stated), for which, in the series with Felis catus [1], the “inhibition (INH)” value worked out at 0%. In addition, the median effective dose (ED50) in the series on Felis catus [2] (0.5 h) was found to be 0.534 mg/kg.

Turning to `COCCNCC(O)COc1ccc(O)cc1` (configuration not stated), the “inhibition (INH)” value in the series on Felis catus [1] came out at 0%. In the series on Felis catus [2] (0.5 h), it took a dose of 0.118 mg/kg to reach the 50% effect level (ED50).

Regarding `OC(CNCCOc1ccc(Cl)cc1)COc1ccccc1` (configuration not stated), the “inhibition (INH)” value in the series on Felis catus [1] was found to be 0%. It took a dose of 0.08 mg/kg to reach the 50% effect level in the series on Felis catus [2] (0.5 h) (ED50).

Regarding `Cl.OC(CNCCCOc1ccccc1)COc1ccccc1` (configuration not stated), in the series on Felis catus [1], the “inhibition (INH)” value came to 0%. This compound came in with an ED50 in the series on Felis catus [2] (0.5 h) of 0.239 mg/kg.

Take `OC(CNCCOc1ccccc1)COc1ccccc1` (configuration not stated): the “inhibition (INH)” value in the series on Felis catus [1] is reported as 0%. This compound also showed an ED50 with Felis catus [2] (0.5 h) of 0.054 mg/kg.

Regarding `COc1ccccc1OC(C)CNCC(O)COc1ccccc1.O=C(O)C(=O)O` (configuration not stated), the “inhibition (INH)” value in the series with Felis catus [1] was 0%. For the same compound, the 50% effect level with Felis catus [2] (0.5 h) (ED50) was put at a dose of 0.014 mg/kg.

For `OC(CNCCOc1ccc(F)cc1)COc1ccccc1` (configuration not stated), the “inhibition (INH)” value in the series with Felis catus [1] is 58%. This compound also had an ED50 with Felis catus [2] (0.5 h) of 0.029 mg/kg.

For `C=CCc1ccccc1OCCNCC(O)COc1ccccc1.O=C(O)C(=O)O` (configuration not stated), the “inhibition (INH)” value in the series on Felis catus [1] amounted to 33%. The median effective dose (ED50) in the series on Felis catus [2] (0.5 h) came to 0.75 mg/kg.

Regarding `CCCc1ccccc1OCCNCC(O)COc1ccccc1.O=C(O)C(=O)O` (configuration not stated), the “inhibition (INH)” value in the series with Felis catus [1] is 0%. In the series with Felis catus [2] (0.5 h), this compound showed an ED50 of 0.833 mg/kg.

As for `O=C(O)C(=O)O.OC(CNCCOc1ccccc1)COc1ccccc1Cl` (configuration not stated), in the series with Felis catus [1], the “inhibition (INH)” value was found to be 38%. This compound also had a median effective dose (ED50) in the series with Felis catus [2] (0.5 h) of 1.11 mg/kg.

On to `CCOCCCNCC(O)COc1ccccc1` (configuration not stated), for which the “inhibition (INH)” value with Felis catus [1] was 0%. For the same compound, in the series with Felis catus [2] (0.5 h), it took a dose of 0.066 mg/kg to reach the 50% effect level (ED50).

Take `CCOCCNCC(O)COc1ccccc1` (configuration not stated): the “inhibition (INH)” value in the series on Felis catus [1] was found to be 10%. In the series on Felis catus [2] (0.5 h), this compound displayed a 50% effective dose (ED50) of 0.047 mg/kg.

`Cl.Oc1ccccc1OCCNCC(O)COc1ccccc1` (configuration not stated): the “inhibition (INH)” value with Felis catus [1] was 0%. Besides, in the series on Felis catus [2] (0.5 h), it took a dose of 0.022 mg/kg to reach the 50% effect level (ED50).

As for `O=C(O)C(=O)O.OC(CNCCOc1ccccc1Cl)COc1ccccc1` (configuration not stated), the “inhibition (INH)” value in the series on Felis catus [1] came out at 71%. In the series with Felis catus [2] (0.5 h), the 50% effective dose (ED50) stood at 0.821 mg/kg.

For the compound `Cc1ccc(OCCNCC(O)COc2ccccc2)cc1` (configuration not stated), the “inhibition (INH)” value in the series on Felis catus [1] is reported as 0%. The compound also registered an ED50 with Felis catus [2] (0.5 h) of 0.179 mg/kg.

For `Cc1ccccc1OCC(O)CNCCOc1ccc(C(N)=O)cc1` (configuration not stated) [TOLAMOLOL], in the series on Felis catus [1], the “inhibition (INH)” value came to 81%. The compound further came in with a median effective dose (ED50) in the series with Felis catus [2] (0.5 h) of 0.133 mg/kg.

Consider `COc1ccccc1OCCNCC(O)COc1ccccc1OC.O=C(O)C(=O)O` (configuration not stated), for which the “inhibition (INH)” value in the series with Felis catus [1] is listed as 60%. Besides, the ED50 in the series with Felis catus [2] (0.5 h) is 0.539 mg/kg.

As for `COc1ccccc1OCCCNCC(O)COc1ccccc1.O=C(O)C(=O)O` (configuration not stated), in the series on Felis catus [1], the “inhibition (INH)” value is 15%. For the same compound, it took a dose of 0.721 mg/kg to reach the 50% effect level with Felis catus [2] (0.5 h) (ED50).

Consider `COc1ccc(OCCNCC(O)COc2ccccc2)cc1` (configuration not stated), for which the “inhibition (INH)” value in the series on Felis catus [1] is on record as 0%. Further, the ED50 in the series with Felis catus [2] (0.5 h) was 0.064 mg/kg.

As to `COCCNCC(O)COc1ccc(Cl)cc1` (configuration not stated), the ED50 entry in the series on Felis catus [2] is “inactive”.

Regarding `COCCNCC(O)COc1cccc2ccccc12` (configuration not stated), the ED50 result with Felis catus [2] is “inactive”.

Take `Cc1ccccc1OCC(O)CNCCOc1ccccc1.Cl` (configuration not stated): in the series with Felis catus [1], the “inhibition (INH)” value is given as 12%. For the same compound, the ED50 in the series with Felis catus [2] (0.5 h) turned out to be 0.284 mg/kg.

In the case of `COCCNCC(O)COc1ccccc1` (configuration not stated), in the series on Felis catus [1], the “inhibition (INH)” value was determined as 0%. The compound further came in with a 50% effective dose (ED50) in the series on Felis catus [2] (0.5 h) of 0.13 mg/kg.

In the case of `OC(CNCCOc1ccccc1)COc1ccc(OCc2ccccc2)cc1` (configuration not stated), the ED50 entry with Felis catus [2] was “inactive”.

Take `Cc1ccc(OCC(O)CNCCOc2ccccc2)cc1` (configuration not stated): in the series with Felis catus [2], the ED50 entry was “inactive”.

For `CCOCCCNCC(O)COc1ccccc1[N+](=O)[O-].O=C(O)C(=O)O` (configuration not stated), the “inhibition (INH)” value in the series with Felis catus [1] came out at 0%. Moreover, the median effective dose (ED50) with Felis catus [2] (0.5 h) stood at 0.566 mg/kg.

With `COc1ccccc1OCCNCC(O)COc1ccccc1` (configuration not stated), in the series with Felis catus [1], the “inhibition (INH)” value is recorded as 0%. The 50% effective dose (ED50) in the series on Felis catus [2] (0.5 h) stood at 0.063 mg/kg.
